Measurements as given in paper PMC6044753, “Diclofenac Identified as a Kynurenine 3-Monooxygenase Binder and Inhibitor by Molecular Similarity Techniques” (ACS Omega, 2018).

Molecular target: kynurenine 3-monooxygenase (KMO) (Homo sapiens, UniProt O15229)
Test: microdialysis (rapid equilibrium dialysis) with LC-MS on enriched HEK-KMO lysate; supported by cell lysate enzymatic inhibition, IC50 […]
Assay type: binding

Chain of kynurenine 3-monooxygenase (KMO) (O15229 whole entry): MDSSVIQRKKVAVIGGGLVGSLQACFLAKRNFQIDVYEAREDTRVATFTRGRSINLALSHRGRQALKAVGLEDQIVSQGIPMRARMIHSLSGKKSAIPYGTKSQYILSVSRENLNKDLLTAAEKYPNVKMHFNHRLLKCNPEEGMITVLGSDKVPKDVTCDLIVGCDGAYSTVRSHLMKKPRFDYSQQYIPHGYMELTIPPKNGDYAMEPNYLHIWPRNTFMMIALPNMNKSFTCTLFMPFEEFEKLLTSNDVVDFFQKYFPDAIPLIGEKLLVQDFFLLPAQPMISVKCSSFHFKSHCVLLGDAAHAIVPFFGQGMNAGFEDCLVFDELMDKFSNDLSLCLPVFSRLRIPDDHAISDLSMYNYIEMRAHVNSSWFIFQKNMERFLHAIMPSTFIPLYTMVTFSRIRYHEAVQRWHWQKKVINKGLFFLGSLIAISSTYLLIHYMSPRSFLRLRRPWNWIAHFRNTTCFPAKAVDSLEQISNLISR

O=C(O)Cc1ccccc1Nc1c(Cl)cccc1Cl [diclofenac]
Kd: 64.8 ± 29.5 µM
